Source: publication PMC4529246 (PLoS ONE, 2015)
Like-named read-outs stand apart in the source and are kept apart here.

Assays:
Assay in all cases: cell-based
[1] = target: T1, system xc- (H4) (Homo sapiens, UniProt Q9UPY5); set-up: [14C]-cystine uptake inhibition, 2 min, PBS with Na+, scintillation counting; conditions: PBS (+Na+), 2 min
T1 construct: gene SLC7A11; native endogenous transporter in intact H4 neuroglioma cells
T1 sequence (Q9UPY5 1-501): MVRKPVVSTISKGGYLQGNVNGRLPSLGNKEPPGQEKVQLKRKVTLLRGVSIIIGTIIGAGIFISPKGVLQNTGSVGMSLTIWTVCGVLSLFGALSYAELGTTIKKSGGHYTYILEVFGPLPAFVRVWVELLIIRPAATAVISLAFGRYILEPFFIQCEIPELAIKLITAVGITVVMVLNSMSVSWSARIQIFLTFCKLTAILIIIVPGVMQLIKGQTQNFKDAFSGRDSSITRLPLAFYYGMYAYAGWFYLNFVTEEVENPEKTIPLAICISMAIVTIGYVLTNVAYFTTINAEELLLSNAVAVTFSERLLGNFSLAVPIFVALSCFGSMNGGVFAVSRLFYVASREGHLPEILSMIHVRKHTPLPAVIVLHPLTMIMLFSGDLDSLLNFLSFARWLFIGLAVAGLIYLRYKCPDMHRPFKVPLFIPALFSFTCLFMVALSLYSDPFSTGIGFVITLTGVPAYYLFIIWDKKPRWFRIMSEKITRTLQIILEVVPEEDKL
T1 sequence (P08195 1-529 partner): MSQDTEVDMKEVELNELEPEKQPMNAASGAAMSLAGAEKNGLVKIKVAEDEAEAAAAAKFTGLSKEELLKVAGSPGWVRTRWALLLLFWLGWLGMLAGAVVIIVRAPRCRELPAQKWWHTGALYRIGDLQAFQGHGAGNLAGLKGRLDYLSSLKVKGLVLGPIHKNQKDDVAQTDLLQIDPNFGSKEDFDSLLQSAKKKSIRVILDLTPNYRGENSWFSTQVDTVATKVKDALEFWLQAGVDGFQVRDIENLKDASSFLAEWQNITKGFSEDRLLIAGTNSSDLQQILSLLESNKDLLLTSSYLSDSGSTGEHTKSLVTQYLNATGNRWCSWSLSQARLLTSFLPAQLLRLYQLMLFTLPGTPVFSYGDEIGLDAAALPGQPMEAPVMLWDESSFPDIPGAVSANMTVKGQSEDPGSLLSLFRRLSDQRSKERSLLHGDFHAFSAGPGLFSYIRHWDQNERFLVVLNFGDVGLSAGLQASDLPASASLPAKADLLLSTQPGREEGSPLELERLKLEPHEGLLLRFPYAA
Method: Early characterization work was carried out in a 12-well format and the assay later adapted and characterized in the 96-well format. Briefly, CCF-STTG-1 cells were seeded at 0.04 x 10^6 cells per well in 0.2 ml growth media and grown to confluence. […] After 15 min, uptake was terminated by three washes (115 μl/well) with ice-cold UB. Cells were then lysed with 0.1 N NaOH (100 μl/well) and the radioactivity in the cells measured using scintillant-coated 96-well plates (PerkinElmer: 6005630) and normalized to protein contents. The assay was further characterized for the dependence of ^14C-cystine uptake on protein content (mg/ml) and the time and temperature of incubation. To determine IC50 values, CCF-STTG-1 cells were similarly seeded and grown to confluence. On day 3, transport was initiated upon the addition of pre-warmed (37°C) [^14C]-cystine 80 μM (5.631 μCi/μmol) in Earle’s Balanced Salt Solution (EBSS, Sigma: E3024, contents in mM: NaCl 116.4, NaHCO3 26.2, NaH2PO4 1.02, KCl 5.36, MgSO4 0.81, CaCl2 1.8 and Glucose 5.56, pH 7.4) in the presence and absence of inhibitors. […]

[2] = target: T2, system xc- (IMR90) (Homo sapiens, UniProt Q9UPY5); set-up: species or system IMR-90; [14C]-cystine uptake inhibition, 2 min, PBS with Na+, scintillation counting; conditions: PBS (+Na+), 2 min
T2 construct: gene SLC7A11; native endogenous transporter in intact IMR-90 fibroblasts
T2 sequence (Q9UPY5 1-501): T1 sequence (Q9UPY5 1-501)
T2 sequence (P08195 1-529 partner): T1 sequence (P08195 1-529 partner)
Method: Early characterization work was carried out in a 12-well format and the assay later adapted and characterized in the 96-well format. Briefly, CCF-STTG-1 cells were seeded at 0.04 x 10^6 cells per well in 0.2 ml growth media and grown to confluence. […] Cells were then lysed with 0.1 N NaOH (100 μl/well) and the radioactivity in the cells measured using scintillant-coated 96-well plates (PerkinElmer: 6005630) and normalized to protein contents. The assay was further characterized for the dependence of ^14C-cystine uptake on protein content (mg/ml) and the time and temperature of incubation. To determine IC50 values, CCF-STTG-1 cells were similarly seeded and grown to confluence. On day 3, transport was initiated upon the addition of pre-warmed (37°C) [^14C]-cystine 80 μM ([…], Sigma: E3024, contents in mM: NaCl 116.4, NaHCO3 26.2, NaH2PO4 1.02, KCl 5.36, MgSO4 0.81, CaCl2 1.8 and Glucose 5.56, pH 7.4) in the presence and absence of inhibitors. […] Identical protocols were followed for IC50 determinations using UB or phosphate buffered saline (PBS; contents in mM: S1 Table) with […] The rates of [^14C]-cystine influx and cystine-induced glutamate efflux were closely examined using CCF-STTG-1 (grade IV astrocytoma) cells in order to understand the reasons for the lower IC50 values and longer time-dependence in the cystine-induced glutamate release assay. […]

[3] = target: T2, system xc- (IMR90); set-up: species or system IMR-90; cystine-induced glutamate release inhibition, 30 min, PBS with Na+; conditions: PBS (+Na+), 30 min; read-out: Glutamate Release IMR90
Method: Early characterization of the cystine-induced glutamate release assay was carried out in the 96-well format and later adapted to the 384-well format. Briefly, CCF-STTG-1 cells were seeded at 0.04 x 10^6 cells per 96-well and grown to confluence. […] Cells were maintained for 2h at 37°C in an incubator with 5% CO2. At the end of the incubation period, cystine-induced glutamate release was measured directly. The assay was further characterized for the dependence of cystine-induced glutamate release on protein content (mg/ml) and the time of incubation. […] Cells were maintained at 37°C in an incubator with 5% CO2 and the glutamate released over a 2h period measured. Identical protocols were followed for IC50 determinations using UB or PBS with CCF-STTG-1, neuroglioma (H4) or fibroblast (IMR-90) cells. U-87 MG cells were seeded at 0.06 x 10^6 cells per 96-well (in 0.3 ml growth media) and tested on Day2. When running the assay in the 384-well format, CCF-STTG-1 cells were seeded at 0.01 x 10^6 cells per well (in 0.025 ml growth media) and grown to confluence. […] Cells were maintained for 3h at 37°C in an incubator with 5% CO2. At the end of the incubation period, cystine-induced glutamate release was measured directly. The rates of [^14C]-cystine influx and cystine-induced glutamate efflux were closely examined using CCF-STTG-1 (grade IV astrocytoma) cells in order to understand the reasons for the lower IC50 values and longer time-dependence in the cystine-induced glutamate release assay. […] The experiments were repeated also using IMR-90 fibroblast cells derived from normal embryonic lung and a second cancer line, the H4 neuroglioma cells. […] (DOCX) Click here for additional data file.

[4] = target: T1, system xc- (H4); set-up: cystine-induced glutamate release inhibition, 30 min, PBS with Na+; conditions: PBS (+Na+), 30 min; read-out: Glutamate Release H4
Method: Early characterization of the cystine-induced glutamate release assay was carried out in the 96-well format and later adapted to the 384-well format. Briefly, CCF-STTG-1 cells were seeded at 0.04 x 10^6 cells per 96-well and grown to confluence. […] Cells were maintained for 2h at 37°C in an incubator with 5% CO2. At the end of the incubation period, cystine-induced glutamate release was measured directly. The assay was further characterized for the dependence of cystine-induced glutamate release on protein content (mg/ml) and the time of incubation. […] Cells were maintained at 37°C in an incubator with 5% CO2 and the glutamate released over a 2h period measured. Identical protocols were followed for IC50 determinations using UB or PBS with CCF-STTG-1, neuroglioma (H4) or fibroblast (IMR-90) cells. U-87 MG cells were seeded at 0.06 x 10^6 cells per 96-well (in 0.3 ml growth media) and tested on Day2. When running the assay in the 384-well format, CCF-STTG-1 cells were seeded at 0.01 x 10^6 cells per well (in 0.025 ml growth media) and grown to confluence. […] Cells were maintained for 3h at 37°C in an incubator with 5% CO2. At the end of the incubation period, cystine-induced glutamate release was measured directly. […]

`N[C@@H](CCC(=O)O)C(=O)O` [glutamate] gave an IC50 [1] of 200 ± 20 µM and an IC50 [2] of 200 ± 3 µM.
In the case of `N[C@H](C(=O)O)c1ccc(C(=O)O)cc1` [(S)-4CPG], the IC50 [3] is reported as 2 ± 0.4 µM and the IC50 [1] is reported as 20 ± 0.4 µM.
For `N[C@@H](C(=O)O)c1ccc(C(=O)O)cc1` [(R)-4CPG], the IC50 [3] was greater than 100 µM and the IC50 [4] was greater than 100 µM.
`O=C(O)c1cc(/N=N/c2ccc(S(=O)(=O)Nc3ccccn3)cc2)ccc1O` [SAS] gave an IC50 [3] of 3 ± 0.2 µM.
